Experimental data from PubChem BioAssay AID1259407 (Chemical Carcinogenesis Research Information System (CCRIS), 2018).
Active and inactive are the calls of the source. No rule for the calls is given here.

Tested on: CCRIS mutagenicity, Ames/micronucleus/aberration tests
Experiment: CCRIS mutagenicity studies
[1] = Test System: AMES SALMONELLA TYPHIMURIUM, Strain/Indicator: TA100, Metabolic Activation: NONE, Method: PREINCUBATION
[2] = Test System: AMES SALMONELLA TYPHIMURIUM, Strain/Indicator: TA98, Metabolic Activation: NONE, Method: STANDARD PLATE
[3] = Test System: AMES SALMONELLA TYPHIMURIUM, Strain/Indicator: TA98, Metabolic Activation: RAT, LIVER, S-9, AROCLOR 1254, Method: STANDARD PLATE
[4] = Test System: AMES SALMONELLA TYPHIMURIUM, Strain/Indicator: TA100, Metabolic Activation: NONE, Method: STANDARD PLATE
[5] = Test System: AMES SALMONELLA TYPHIMURIUM, Strain/Indicator: TA100, Metabolic Activation: RAT, LIVER, S-9, AROCLOR 1254, Method: STANDARD PLATE

## CC(C)C(C)C
Test System: AMES SALMONELLA TYPHIMURIUM, Strain/Indicator: TA97, Metabolic Activation: HAMSTER, LIVER, S-9, AROCLOR 1254 (10 OR 30%), Method: PREINCUBATION
  mutagenic call: inactive; negative
Test System: AMES SALMONELLA TYPHIMURIUM, Strain/Indicator: TA97, Metabolic Activation: NONE, Method: PREINCUBATION
  mutagenic call: inactive; negative
Test System: AMES SALMONELLA TYPHIMURIUM, Strain/Indicator: TA97, Metabolic Activation: RAT, LIVER, S-9, AROCLOR 1254 (10 OR 30%), Method: PREINCUBATION
  mutagenic call: inactive; negative
Test System: AMES SALMONELLA TYPHIMURIUM, Strain/Indicator: TA98, Metabolic Activation: HAMSTER, LIVER, S-9, AROCLOR 1254 (10%), Method: PREINCUBATION
  mutagenic call: inactive; negative
Test System: AMES SALMONELLA TYPHIMURIUM, Strain/Indicator: TA98, Metabolic Activation: HAMSTER, LIVER, S-9, AROCLOR 1254 (30%), Method: DESICCATOR
  mutagenic call: inactive; negative
Test System: AMES SALMONELLA TYPHIMURIUM, Strain/Indicator: TA98, Metabolic Activation: HAMSTER, LIVER, S-9, AROCLOR 1254 (30%), Method: PREINCUBATION
  mutagenic call: inactive; negative
Test System: AMES SALMONELLA TYPHIMURIUM, Strain/Indicator: TA98, Metabolic Activation: NONE, Method: DESICCATOR
  mutagenic call: inactive; negative
Test System: AMES SALMONELLA TYPHIMURIUM, Strain/Indicator: TA98, Metabolic Activation: NONE, Method: PREINCUBATION
  mutagenic call: inactive; negative
Test System: AMES SALMONELLA TYPHIMURIUM, Strain/Indicator: TA98, Metabolic Activation: RAT, LIVER, S-9, AROCLOR 1254 (10%), Method: PREINCUBATION
  mutagenic call: inactive; negative
Test System: AMES SALMONELLA TYPHIMURIUM, Strain/Indicator: TA98, Metabolic Activation: RAT, LIVER, S-9, AROCLOR 1254 (30%), Method: DESICCATOR
  mutagenic call: inactive; negative
Test System: AMES SALMONELLA TYPHIMURIUM, Strain/Indicator: TA98, Metabolic Activation: RAT, LIVER, S-9, AROCLOR 1254 (30%), Method: PREINCUBATION
  mutagenic call: inactive; negative
Test System: AMES SALMONELLA TYPHIMURIUM, Strain/Indicator: TA100, Metabolic Activation: HAMSTER, LIVER, S-9, AROCLOR 1254 (10%), Method: PREINCUBATION
  mutagenic call: inactive; negative
Test System: AMES SALMONELLA TYPHIMURIUM, Strain/Indicator: TA100, Metabolic Activation: HAMSTER, LIVER, S-9, AROCLOR 1254 (30%), Method: DESICCATOR
  mutagenic call: inactive; negative
Test System: AMES SALMONELLA TYPHIMURIUM, Strain/Indicator: TA100, Metabolic Activation: HAMSTER, LIVER, S-9, AROCLOR 1254 (30%), Method: PREINCUBATION
  mutagenic call: inactive; negative
Test System: AMES SALMONELLA TYPHIMURIUM, Strain/Indicator: TA100, Metabolic Activation: NONE, Method: DESICCATOR
  mutagenic call: inactive; negative
[1]
  mutagenic call: inactive; negative
Test System: AMES SALMONELLA TYPHIMURIUM, Strain/Indicator: TA100, Metabolic Activation: RAT, LIVER, S-9, AROCLOR 1254 (10%), Method: PREINCUBATION
  mutagenic call: inactive; negative
Test System: AMES SALMONELLA TYPHIMURIUM, Strain/Indicator: TA100, Metabolic Activation: RAT, LIVER, S-9, AROCLOR 1254 (30%), Method: DESICCATOR
  mutagenic call: inactive; negative
Test System: AMES SALMONELLA TYPHIMURIUM, Strain/Indicator: TA100, Metabolic Activation: RAT, LIVER, S-9, AROCLOR 1254 (30%), Method: PREINCUBATION
  mutagenic call: inactive; negative
Test System: AMES SALMONELLA TYPHIMURIUM, Strain/Indicator: TA1535, Metabolic Activation: HAMSTER, LIVER, S-9, AROCLOR 1254 (10 OR 30%), Method: PREINCUBATION
  mutagenic call: inactive; negative
Test System: AMES SALMONELLA TYPHIMURIUM, Strain/Indicator: TA1535, Metabolic Activation: NONE, Method: PREINCUBATION
  mutagenic call: inactive; negative
Test System: AMES SALMONELLA TYPHIMURIUM, Strain/Indicator: TA1535, Metabolic Activation: RAT, LIVER, S-9, AROCLOR 1254 (10 OR 30%), Method: PREINCUBATION
  mutagenic call: inactive; negative

## N[C@@H](CCC(=O)N[C@@H](CSc1ccc([N+](=O)[O-])cc1[N+](=O)[O-])C(=O)NCC(=O)O)C(=O)O
Test System: AMES SALMONELLA TYPHIMURIUM, Strain/Indicator: TA100(NR), Metabolic Activation: NONE, Method: PREINCUBATION
  mutagenic call: inactive; negative
Test System: AMES SALMONELLA TYPHIMURIUM, Strain/Indicator: TA100/GSH-, Metabolic Activation: NONE, Method: PREINCUBATION
  mutagenic call: active; positive
[1]
  mutagenic call: inactive; negative

## CCCN(CO)N=O
Test System: CHINESE HAMSTER V-79, Strain/Indicator: V-79/OUABAIN, Metabolic Activation: NONE
  mutagenic call: active; positive

## C[N+](C)(C)NCCC(=O)[O-]
Test System: AMES SALMONELLA TYPHIMURIUM, Strain/Indicator: TA98, Metabolic Activation: NONE
  mutagenic call: inactive; negative
Test System: AMES SALMONELLA TYPHIMURIUM, Strain/Indicator: TA98, Metabolic Activation: RAT LIVER S-9, AROCLOR 1254
  mutagenic call: inactive; negative
Test System: AMES SALMONELLA TYPHIMURIUM, Strain/Indicator: TA100, Metabolic Activation: NONE
  mutagenic call: inactive; negative
Test System: AMES SALMONELLA TYPHIMURIUM, Strain/Indicator: TA100, Metabolic Activation: RAT LIVER S-9, AROCLOR 1254
  mutagenic call: inactive; negative

## NNc1nc(-c2ccc([N+](=O)[O-])cc2)cs1
Test System: AMES SALMONELLA TYPHIMURIUM, Strain/Indicator: TA98, Metabolic Activation: RAT, LIVER, S-9, KC500 OR PHENOBARBITAL, Method: LIQUID SUSPENSION
  mutagenic call: active; positive
Test System: AMES SALMONELLA TYPHIMURIUM, Strain/Indicator: TA100, Metabolic Activation: RAT, LIVER, S-9, KC500 OR PHENOBARBITAL, Method: LIQUID SUSPENSION
  mutagenic call: active; positive

## O=C(c1ccc(-c2ccccc2)cc1)C1OC1c1ccccc1 (stereo not drawn)
[2]
  mutagenic call: inactive; negative
[3]
  mutagenic call: inactive; negative
[4]
  mutagenic call: inactive; negative
[5]
  mutagenic call: inactive; negative

## N#CCCN
Test System: AMES SALMONELLA TYPHIMURIUM, Strain/Indicator: TA98, Metabolic Activation: HAMSTER, LIVER, S-9, AROCLOR 1254, Method: STANDARD PLATE
  mutagenic call: inactive; negative
[2]
  mutagenic call: inactive; negative
[3]
  mutagenic call: inactive; negative
Test System: AMES SALMONELLA TYPHIMURIUM, Strain/Indicator: TA100, Metabolic Activation: HAMSTER, LIVER, S-9, AROCLOR 1254, Method: STANDARD PLATE
  mutagenic call: inactive; negative
[4]
  mutagenic call: inactive; negative
[5]
  mutagenic call: inactive; negative
Test System: AMES SALMONELLA TYPHIMURIUM, Strain/Indicator: TA1535, Metabolic Activation: HAMSTER, LIVER, S-9, AROCLOR 1254, Method: STANDARD PLATE
  mutagenic call: inactive; negative
Test System: AMES SALMONELLA TYPHIMURIUM, Strain/Indicator: TA1535, Metabolic Activation: NONE, Method: STANDARD PLATE
  mutagenic call: inactive; negative
Test System: AMES SALMONELLA TYPHIMURIUM, Strain/Indicator: TA1535, Metabolic Activation: RAT, LIVER, S-9, AROCLOR 1254, Method: STANDARD PLATE
  mutagenic call: inactive; negative
Test System: AMES SALMONELLA TYPHIMURIUM, Strain/Indicator: TA1537, Metabolic Activation: HAMSTER, LIVER, S-9, AROCLOR 1254, Method: STANDARD PLATE
  mutagenic call: inactive; negative
Test System: AMES SALMONELLA TYPHIMURIUM, Strain/Indicator: TA1537, Metabolic Activation: NONE, Method: STANDARD PLATE
  mutagenic call: inactive; negative
Test System: AMES SALMONELLA TYPHIMURIUM, Strain/Indicator: TA1537, Metabolic Activation: RAT, LIVER, S-9, AROCLOR 1254, Method: STANDARD PLATE
  mutagenic call: inactive; negative
Test System: AMES SALMONELLA TYPHIMURIUM, Strain/Indicator: TA1538, Metabolic Activation: HAMSTER, LIVER, S-9, AROCLOR 1254, Method: STANDARD PLATE
  mutagenic call: inactive; negative
Test System: AMES SALMONELLA TYPHIMURIUM, Strain/Indicator: TA1538, Metabolic Activation: NONE, Method: STANDARD PLATE
  mutagenic call: inactive; negative
Test System: AMES SALMONELLA TYPHIMURIUM, Strain/Indicator: TA1538, Metabolic Activation: RAT, LIVER, S-9, AROCLOR 1254, Method: STANDARD PLATE
  mutagenic call: inactive; negative
Test System: Mouse lymphoma, Strain/Indicator: L5178Y (tk+/tk-), Metabolic Activation: None, Method: Suspension/plate
  mutagenic call: inactive; inconclusive (previous evaluation negative)
Test System: Mouse lymphoma, Strain/Indicator: L5178Y (tk+/tk-), Metabolic Activation: Rat, Liver, S-9, Aroclor 1254, Method: Suspension/plate
  mutagenic call: inactive; negative
